Results from patent publication US11124481B2 (Exelixis, Inc., priority 2014, dated 2021).

Experiments:
[1] = test system: U87 tumor cells; assay: dynamic PET imaging in mice with orthotopically implanted U87 tumor cells; type: in vivo, athymic BALB/C mice
Protocol: Rodent imaging experiments were performed on a dedicated small animal microPET® F120™ scanner (Siemens Preclinical Solutions, Knoxville, Tenn.). Both static and dynamic PET imaging studies were conducted on athymic BALB/C mice (Harlan) and stereotactically implanted U87 tumor cells. The mice were administered about 6.4-7.4 MBq (0.17-0.2 mCi) of [^18F]-Cabozantinib via the tail vein. The mice were anesthetized (2% isofluorane in O2 at a flow rate of 1 mL/min) during tracer injection and throughout the imaging period. After injection, each mouse was laid in the microPET scanner. A 10 minutes transmission scan was acquired using a ^57Co point source prior to either the 2 hour dynamic scan or the 45 min static scan starting at about 15 minutes after injection. Mice were visually monitored for breathing, and a heating pad was used to maintain body temperature throughout the entire procedure. […] Data were analyzed by manually drawing standardized volumes of interest using the Siemens ASIPro VM software package version 6.6. […]
FIG. 3 depicts Positron Emission Tomography (PET) images of mice injected with [^18F]-Cabozantinib. […] A tumor:brain ratio, which is the ratio of the amount of [^18F]-Cabozantinib in the tumor compared to the amount of [^18F]-Cabozantinib in the brain in non-tumor regions, of 2.6 to 2.8 was measured for U87 stereotactically implanted tumor cells. […]

[2] = dynamic PET imaging in tumor-free control mice; type: in vivo, athymic BALB/C mice
Protocol: Rodent imaging experiments were performed on a dedicated small animal microPET® F120™ scanner (Siemens Preclinical Solutions, Knoxville, Tenn.). Both static and dynamic PET imaging studies were conducted on athymic BALB/C mice (Harlan) and stereotactically implanted U87 tumor cells. The mice were administered about 6.4-7.4 MBq (0.17-0.2 mCi) of [^18F]-Cabozantinib via the tail vein. The mice were anesthetized (2% isofluorane in O2 at a flow rate of 1 mL/min) during tracer injection and throughout the imaging period. After injection, each mouse was laid in the microPET scanner. A 10 minutes transmission scan was acquired using a ^57Co point source prior to either the 2 hour dynamic scan or the 45 min static scan starting at about 15 minutes after injection. Mice were visually monitored for breathing, and a heating pad was used to maintain body temperature throughout the entire procedure. PET data were reconstructed using an OSEM 2D algorithm into a 128×128×95 image matrix (resulting in final voxel dimensions of 0.79×0.79×0.8 mm). Dead time, decay correction, attenuation correction, and normalization were applied to all PET data. Data were analyzed by manually drawing standardized volumes of interest using the Siemens ASIPro VM software package version 6.6. […]

[3] = biodistribution in mice with subcutaneous U87 tumor cells (gamma counter); type: in vivo, athymic BALB/C mice
Protocol: . After acute sedation with isofluorane (2%) animals were sacrificed by decapitation at 15 and 60 min following tracer injection. Blood samples were collected and portions of the liver, kidneys, heart, lungs, muscles, stomach, large intestine, small intestine, bladder, spleen, brain and femur were dissected and weighed. Radioactivity of each sample was measured using a gamma counter (1480 Wizard™ 3 Automatic Gamma Counter, PerkinElmer). Decay-corrected radioactivity concentrations were calculated as percentage of injected dose per gram tissue (% ID/g).

[4] = radiometabolite analysis in mouse plasma (radio-TLC)

COc1cc2nccc(Oc3ccc(NC(=O)C4(C(=O)Nc5ccc([18F])cc5)CC4)cc3)c2cc1OC [[^18F]-Cabozantinib, cyclopropane-1,1-dicarboxylic acid [4-(6,7-dimethoxy-quinolin-4-yloxy)-phenyl]-amide(4-[^18F]-fluoro-phenyl)amide]
SUV mean, tumor uptake ([1]; orthotopically implanted U87 mice, n=3): 0.50
time of maximal tumor uptake post injection ([1]; time activity curves over 2 hour period): 60 min
SUV mean, uptake in the brain ([2]; tumor-free control mice, summed PET images): 0.19
crossing of the blood brain barrier ([2]; tumor-free mice, PET): does not cross the blood brain barrier
tracer uptake blood ([3]; 15 minutes post injection, n=6): 1.8±0.2 % ID/g
tracer uptake brain ([3]; 15 minutes post injection, n=6): 0.9±0.2 % ID/g
tracer uptake femur ([3]; 15 minutes post injection, n=6): 2.9±1.0 % ID/g
tracer uptake heart ([3]; 15 minutes post injection, n=6): 12.9±3.2 % ID/g
tracer uptake kidneys ([3]; 15 minutes post injection, n=6): 14.2±3.0 % ID/g
tracer uptake large intestines ([3]; 15 minutes post injection, n=6): 4.7±2.1 % ID/g
tracer uptake liver ([3]; 15 minutes post injection, n=6): 14.4±3.1 % ID/g
tracer uptake lungs ([3]; 15 minutes post injection, n=6): 6.5±1.1 % ID/g
tracer uptake muscles ([3]; 15 minutes post injection, n=6): 4.4±1.1 % ID/g
tracer uptake small intestines ([3]; 15 minutes post injection, n=6): 7.0±2.4 % ID/g
tracer uptake spleen ([3]; 15 minutes post injection, n=6): 4.7±1.2 % ID/g
tracer uptake stomach ([3]; 15 minutes post injection, n=6): 5.2±1.7 % ID/g
tracer uptake bladder ([3]; 60 minutes post injection, n=6): 4.3±1.2 % ID/g
tracer uptake blood ([3]; 60 minutes post injection, n=6): 2.2±0.3 % ID/g
tracer uptake brain ([3]; 60 minutes post injection, n=6): 0.9±0.1 % ID/g
tracer uptake femur ([3]; 60 minutes post injection, n=6): 1.8±0.8 % ID/g
tracer uptake heart ([3]; 60 minutes post injection, n=6): 9.5±1.5 % ID/g
tracer uptake kidneys ([3]; 60 minutes post injection, n=6): 11.7±1.5 % ID/g
tracer uptake large intestines ([3]; 60 minutes post injection, n=6): 4.6±0.9 % ID/g
tracer uptake liver ([3]; 60 minutes post injection, n=6): 14.0±1.9 % ID/g
tracer uptake lungs ([3]; 60 minutes post injection, n=6): 4.9±0.8 % ID/g
tracer uptake muscles ([3]; 60 minutes post injection, n=6): 4.2±0.3 % ID/g
tracer uptake small intestines ([3]; 60 minutes post injection, n=6): 10.7±1.1 % ID/g
tracer uptake spleen ([3]; 60 minutes post injection, n=6): 3.6±0.6 % ID/g
tracer uptake stomach ([3]; 60 minutes post injection, n=6): 8.4±1.5 % ID/g
crossing of the blood brain barrier ([3]; biodistribution, 15 and 60 minutes): did not appear to cross the blood brain barrier
radiometabolites seen in plasma [4]: Only one radiometabolite
tracer remaining intact in plasma ([4]; 15 and 60 minutes after injection): over 80%
